{"source": "patent US20240398973A1", "about": "“ENGINEERED ANTIBODY COMPOUNDS AND CONJUGATES THEREOF” (Eli Lilly and Company, priority 2017, published 2024)", "key": {"[1]": {"system": "Mouse neutrophils purified from marrow", "experiment": "Mouse PMN ROS production", "type": "cell-based", "conditions": "relative to 10000 nM fMLF, AUC 5 minutes (Table 8c)", "quoted_text": "Mouse neutrophils purified from marrow were exposed to formyl peptides or antibody conjugates and ROS production was measured using luminol amplified chemiluminescence essentially as described above."}, "human primary PMNs": {"system": "human primary PMNs", "experiment": "PMN reactive oxygen species (ROS) production, luminol-amplified chemiluminescence", "type": "cell-based", "conditions": "for PMN ROS production: relative to 3000 nM fMLF, AUC 5 minutes (Table 8b)", "quoted_text": "Production of ROS by human primary PMNs is measured using luminol-amplified chemiluminescence. Following isolation, PMNs are suspended at 1×10^6 cells/ml in HBSS containing calcium and magnesium (Gibco #14025-092) supplemented with 0.25% human serum albumin (Gemini Bio producst #800-124) and 50 uM Luminol (SigmaAldrich #123072-2.5G). 100 μl of cell suspension (1×10^5 total cells) is then distributed into each well of a 96-well plate suitable for fluorescence measurement (Greiner #655098) and temperature equilibrated to 37° C. for 5 minutes. Following equilibration, 10× solution of antibody conjugate is applied to the wells, achieving a 1× final concentration.\nImmediately after the addition of antibody conjugate, chemiluminescence signal is recorded in a luminometer maintained at 37° C. with 0.01 seconds dwell time per well, 20 seconds total time between sequential plate readings and 45 minutes total run time (PerkinElmer EnVision Multilabel Plate Reader)."}, "[2]": {"system": "primary human polymorphonuclear neutrophil (PMN)", "experiment": "PMN chemotaxis (transwell, modified Boyden chamber)", "type": "cell-based", "conditions": "relative to 100 nM fMLF, raw migration values (Table 4b)", "description": "Chemotaxis is measured by observing primary human polymorphonuclear neutrophil (PMN) migration across transwell membranes (Corning #3415) towards antibody conjugates in a modified Boyden chamber assay. Approximately 2-4×10^5 cells from neutrophil-enriched preparations are seeded in upper transwell chambers on membranes with 3.0 um pores. The lower transwell chambers contain solutions of buffer alone and fMLF (N-formyl-Met-Leu-Phe peptide as positive control) and experimental antibody bioconjugates. […] Cell numbers are determined using standard curves. All data are transformed to percent relative to the maximal fMLF response for each individual experiment."}, "[3]": {"target": "formyl peptide receptor 1 (FPR1) on primary human polymorphonuclear neutrophils (human) (UniProt P21462)", "experiment": "cell-based or functional assay"}, "[4]": {"target": "formyl peptide receptor 1 (FPR1) on primary human polymorphonuclear neutrophils (human) (UniProt P21462)", "experiment": "cell-based or functional assay", "remark": "listed apart in the source"}}, "note": "Read-outs that look alike come from different tables or passages of the source. Where no end group is shown, it is not given here. The star is where a group is joined. hydrolyzed maleimide‑PEG linker = hydrolyzed maleimide-polyethylene glycol (PEG) linker, bound to the Lys side chain through an epsilon amide bond; For = O=C*", "data": [{"substance": "FRM-021: SEQ ID NO: 36; formyl-Met-Ile-Phe-Leu-Lys, lysine side chain epsilon amide to a hydrolyzed maleimide-PEG linker (For-MIFLK(hydrolyzed maleimide‑PEG linker))", "values": [{"measurement": "Mouse PMN ROS Production", "setting": "[1]; 10 nM", "value": 14.5, "unit": "percentage"}, {"measurement": "Mouse PMN ROS Production", "setting": "[1]; 30 nM", "value": 17.3, "unit": "percentage"}, {"measurement": "Mouse PMN ROS Production", "setting": "[1]; 100 nM", "value": 112.6, "unit": "percentage"}, {"measurement": "Mouse PMN ROS Production", "setting": "[1]; 300 nM", "value": 150.3, "unit": "percentage"}, {"measurement": "Mouse PMN ROS Production", "setting": "[1]; 1000 nM", "value": 180.2, "unit": "percentage"}, {"measurement": "Mouse PMN ROS Production", "setting": "[1]; 3000 nM", "value": 194.4, "unit": "percentage"}, {"measurement": "Mouse PMN ROS Production", "setting": "[1]; 10000 nM", "value": 186.9, "unit": "percentage"}, {"measurement": "PMN ROS production", "setting": "human primary PMNs; 10 nM", "value": 8.4, "unit": "percentage"}, {"measurement": "PMN ROS production", "setting": "human primary PMNs; 30 nM", "value": 34.4, "unit": "percentage"}, {"measurement": "PMN ROS production", "setting": "human primary PMNs; 100 nM", "value": 69.2, "unit": "percentage"}, {"measurement": "PMN ROS production", "setting": "human primary PMNs; 300 nM", "value": 84.4, "unit": "percentage"}, {"measurement": "PMN ROS production", "setting": "human primary PMNs; 1000 nM", "value": 91.2, "unit": "percentage"}, {"measurement": "PMN ROS production", "setting": "human primary PMNs; 3000 nM", "value": 102.9, "unit": "percentage"}, {"measurement": "PMN ROS production", "setting": "human primary PMNs; 10000 nM", "value": 91.7, "unit": "percentage"}, {"measurement": "EC50", "setting": "human primary PMNs; Best-Fit values in Graphpad PRISM (Table 8b)", "value": 51.2, "unit": "nM"}, {"measurement": "PMN Chemotaxis Towards Formyl Peptides", "setting": "[2]; 1 nM", "value": 151.7, "unit": "%"}, {"measurement": "PMN Chemotaxis Towards Formyl Peptides", "setting": "[2]; 3 nM", "value": 142.2, "unit": "%"}, {"measurement": "PMN Chemotaxis Towards Formyl Peptides", "setting": "[2]; 10 nM", "value": 137.4, "unit": "%"}, {"measurement": "PMN Chemotaxis Towards Formyl Peptides", "setting": "[2]; 30 nM", "value": 52.9, "unit": "%"}, {"measurement": "PMN Chemotaxis Towards Formyl Peptides", "setting": "[2]; 100 nM", "value": 37.0, "unit": "%"}, {"measurement": "PMN Chemotaxis Towards Formyl Peptides", "setting": "[2]; 300 nM", "value": 35.6, "unit": "%"}, {"measurement": "PMN Chemotaxis Towards Formyl Peptides", "setting": "[2]; 1000 nM", "value": 22.8, "unit": "%"}]}, {"substance": "fMLF (N-formyl-Met-Leu-Phe peptide)", "values": [{"measurement": "EC50 of PMN ROS production", "setting": "[3]", "value": 154, "unit": "nM"}, {"measurement": "EC50 of PMN ROS production", "setting": "[4]", "value": 334, "unit": "nM"}]}, {"substance": "TMab-G1-fMLFK-HC-124C-378C (antibody)", "values": [{"measurement": "EC50 of PMN ROS production", "setting": "[4]", "value": 164, "unit": "nM"}]}]}
